{"source": "paper PMC6152678", "about": "“In Vitro Comparative Study of the Inhibitory Effects of Mangiferin and Its Aglycone Norathyriol towards UDP-Glucuronosyl Transferase (UGT) Isoforms” (Molecules : A Journal of Synthetic Chemistry and Natural …, 2017)", "key": {"UGT2B7": {"target": "T1, UGT2B7 (Homo sapiens, UniProt P16662)", "T1 construct": "purchased BD Gentest Corp. (Woburn, MA, USA); host or cells: baculovirus-infected insect cells", "T1 sequence (P16662 24-529)": "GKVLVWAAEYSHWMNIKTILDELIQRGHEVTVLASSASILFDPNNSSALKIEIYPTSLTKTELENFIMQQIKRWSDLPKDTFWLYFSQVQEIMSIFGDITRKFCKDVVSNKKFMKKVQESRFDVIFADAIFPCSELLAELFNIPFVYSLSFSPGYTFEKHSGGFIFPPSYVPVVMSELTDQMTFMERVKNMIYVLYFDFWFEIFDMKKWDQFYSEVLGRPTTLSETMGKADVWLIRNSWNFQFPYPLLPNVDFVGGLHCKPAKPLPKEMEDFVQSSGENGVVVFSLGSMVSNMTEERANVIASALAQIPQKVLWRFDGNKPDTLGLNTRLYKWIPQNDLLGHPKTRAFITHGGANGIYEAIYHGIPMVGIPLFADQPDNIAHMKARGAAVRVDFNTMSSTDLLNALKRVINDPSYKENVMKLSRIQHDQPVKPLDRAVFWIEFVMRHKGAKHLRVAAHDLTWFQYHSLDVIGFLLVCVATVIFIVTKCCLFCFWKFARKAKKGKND", "test": "Inhibition of recombinant UGT-catalyzed 4-MU glucuronidation", "type": "biochemical", "settings": "pH 7.4, probe 4-methylumbelliferone (4-MU), 350 μM, 100 μM compound, 4-MU probe substrate, negative = activation"}, "UGT1A6": {"target": "T2, UGT1A6 (Homo sapiens, UniProt P19224)", "T2 construct": "purchased BD Gentest Corp. (Woburn, MA, USA); host or cells: baculovirus-infected insect cells", "T2 sequence (P19224 27-532)": "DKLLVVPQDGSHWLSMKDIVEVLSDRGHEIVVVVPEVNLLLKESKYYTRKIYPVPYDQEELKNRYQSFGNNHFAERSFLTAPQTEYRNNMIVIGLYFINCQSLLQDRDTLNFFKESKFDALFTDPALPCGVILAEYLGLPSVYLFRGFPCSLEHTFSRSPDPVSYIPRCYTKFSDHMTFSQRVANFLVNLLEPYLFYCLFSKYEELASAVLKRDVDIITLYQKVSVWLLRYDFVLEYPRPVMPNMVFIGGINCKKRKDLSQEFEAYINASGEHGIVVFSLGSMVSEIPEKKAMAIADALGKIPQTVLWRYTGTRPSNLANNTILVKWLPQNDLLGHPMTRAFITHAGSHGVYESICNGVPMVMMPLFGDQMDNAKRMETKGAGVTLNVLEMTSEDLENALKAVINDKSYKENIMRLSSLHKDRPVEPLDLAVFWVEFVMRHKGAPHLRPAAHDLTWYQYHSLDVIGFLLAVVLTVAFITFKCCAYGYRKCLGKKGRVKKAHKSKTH", "test": "Inhibition of recombinant UGT-catalyzed 4-MU glucuronidation", "type": "biochemical", "settings": "pH 7.4, probe 4-methylumbelliferone (4-MU), 110 μM, 100 μM compound, 4-MU probe substrate, negative = activation"}}, "data": [{"molecule": "O=c1c2cc(O)c(O)cc2oc2cc(O)cc(O)c12", "note": "[NTR, 1,3,6,7-tetrahydroxyxanthone]", "values": [{"measurement": "inhibition at 120 min, 100 µM", "setting": "UGT2B7", "value": 31.8, "unit": "%"}, {"measurement": "inhibition at 30 min, 100 µM", "setting": "UGT1A6", "value": 46.2, "unit": "%"}]}, {"molecule": "O=c1c2cc(O)c(O)cc2oc2cc(O)c([C@@H]3O[C@H](CO)[C@@H](O)[C@H](O)[C@H]3O)c(O)c12", "note": "[MGF, 1,3,6,7-tetrahydroxyxanthone-C-2-β-D-glucoside]", "values": [{"measurement": "inhibition at 120 min, 100 µM", "setting": "UGT2B7", "value": -11.2, "unit": "%"}, {"measurement": "inhibition at 30 min, 100 µM", "setting": "UGT1A6", "value": 11.2, "unit": "%"}]}]}
